Source: patent US20220380829A1, “Method of Diagonosizing Pathogens and their Antimicrobial Susceptibility” (HANGZHOU DIAN MEDICAL LABORATORY CO., LTD., priority 2019, published 2022)

Tests used:
Format in all cases: cell-based
Candida albicans = assay: Broth microdilution (M27-A3, M27-S4), gold standard culture-based AST; conditions: for Results by broth microdilution method: R: number of resistant among 12 blinds; for Results by broth microdilution method: S: number of susceptible among 12 blinds
Experimental: Step 1. Sample collection and drug susceptibility verification: 120 clinical Candida albicans isolates were collected from 31 hospitals across china in a period between September 2015 and January 2019. All isolates were tested for drug susceptibility using broth microdilution method following the M27-A3 and M27-S4 guidelines of NCCLS, and the results were used as the gold standard (culture-based AST).

Acinetobacter baumannii = assay: VITEK2 Compact AST (AST-N335 cards), gold standard culture-based AST
Experimental: Step 1. Drug susceptibility verification: The Acinetobacter baumannii isolates were tested for drug susceptibility using bioMérieux Vitek2 Compact System and AST-N335 cards, and the results were used as the gold standard (culture-based AST).

Candida tropicalis = assay: Broth microdilution (M27-A3, M27-S4), gold standard culture-based AST
Klebsiella pneumoniae = assay: VITEK2 Compact AST (AST-GN13/GN334 cards), gold standard culture-based AST
Text: Step 1. Sample collection and drug susceptibility verification: 240 clinical Klebsiella pneumoniae isolates were collected from 23 hospitals across china in a period between January 2018 and March 2019.

Enterococcus faecalis = assay: VITEK2 Compact AST (AST-P639 cards), gold standard culture-based AST
Streptococcus pneumoniae = assay: VITEK2 Compact AST (AST-GP68 cards) with penicillin disc diffusion, gold standard culture-based AST
Experimental: (§1) Step 1. Drug susceptibility verification: The Streptococcus pneumoniae isolates were tested for drug susceptibility using bioMérieux Vitek2 Compact System and AST-GP68 cards, and specifically, the susceptibility of penicillin was double checked by disc diffusion method (OXOID, CT0043B), and the combined results were used as the gold standard (culture-based AST).
as §1, with “Sample collection and drug” for “Drug”, “48 clinical” for “The”, “pneumoniae isolates were collected from 18 hospitals across china in a period between May 2017 and October 2019. All” for “pneumoniae”, “card,” for “cards,”

[1] = Resistance profile classification A
[2] = Resistance profile classification B
[3] = Resistance profile classification C
[4] = Resistance profile classification D
[5] = Resistance profile classification E
[6] = Resistance profile classification F
[7] = Resistance profile classification G
[8] = Resistance profile classification H
[9] = Resistance profile classification I
[10] = Resistance profile classification J
[11] = Resistance profile classification K
[12] = Resistance profile classification L
[13] = Resistance profile classification M
[14] = Resistance profile classification S
[15] = Resistance profile classification F (first line so labelled, r12)
[16] = Resistance profile classification F (second line so labelled, r13)

CCC(C)n1ncn(-c2ccc(N3CCN(c4ccc(OCC5COC(Cn6cncn6)(c6ccc(Cl)cc6Cl)O5)cc4)CC3)cc2)c1=O (centres unmarked) [Itraconazole]
Results by broth microdilution method: R (Candida albicans): 2 | Results by broth microdilution method: S (Candida albicans): 10

CCN1CCN(C(=O)N[C@@H](C(=O)N[C@@H]2C(=O)N3[C@@H]2SC(C)(C)[C@@H]3C(=O)O)c2ccccc2)C(=O)C1=O [pipercillin, piperacillin]
Suscepibility of Acinetobacter baumannii to 12 antibacterial drugs (Acinetobacter baumannii; [1]): R | Suscepibility of Acinetobacter baumannii to 12 antibacterial drugs (Acinetobacter baumannii; [2]): R | Suscepibility of Acinetobacter baumannii to 12 antibacterial drugs (Acinetobacter baumannii; [3]): R | Suscepibility of Acinetobacter baumannii to 12 antibacterial drugs (Acinetobacter baumannii; [4]): R | Suscepibility of Acinetobacter baumannii to 12 antibacterial drugs (Acinetobacter baumannii; [5]): R | Suscepibility of Acinetobacter baumannii to 12 antibacterial drugs (Acinetobacter baumannii; [6]): R | Suscepibility of Acinetobacter baumannii to 12 antibacterial drugs (Acinetobacter baumannii; [7]): R | Suscepibility of Acinetobacter baumannii to 12 antibacterial drugs (Acinetobacter baumannii; [8]): R | Suscepibility of Acinetobacter baumannii to 12 antibacterial drugs (Acinetobacter baumannii; [9]): R | Suscepibility of Acinetobacter baumannii to 12 antibacterial drugs (Acinetobacter baumannii; [10]): R | Suscepibility of Acinetobacter baumannii to 12 antibacterial drugs (Acinetobacter baumannii; [11]): R | Suscepibility of Acinetobacter baumannii to 12 antibacterial drugs (Acinetobacter baumannii; [12]): R | Suscepibility of Acinetobacter baumannii to 12 antibacterial drugs (Acinetobacter baumannii; [13]): R | Suscepibility of Acinetobacter baumannii to 12 antibacterial drugs (Acinetobacter baumannii; Resistance profile classification N): R | Suscepibility of Acinetobacter baumannii to 12 antibacterial drugs (Acinetobacter baumannii; Resistance profile classification O): S | Suscepibility of Acinetobacter baumannii to 12 antibacterial drugs (Acinetobacter baumannii; Resistance profile classification P): S | Suscepibility of Acinetobacter baumannii to 12 antibacterial drugs (Acinetobacter baumannii; Resistance profile classification Q): S | Suscepibility of Acinetobacter baumannii to 12 antibacterial drugs (Acinetobacter baumannii; Resistance profile classification R): S | Suscepibility of Acinetobacter baumannii to 12 antibacterial drugs (Acinetobacter baumannii; [14]): S

CCC(C)n1ncn(-c2ccc(N3CCN(c4ccc(OCC5COC(Cn6cncn6)(c6ccc(Cl)cc6Cl)O5)cc4)CC3)cc2)c1=O (centres unmarked) [ITR]
Resistance profiles by broth microdilution (the gold standard) (Candida tropicalis; blind-1): R | Resistance profiles by broth microdilution (the gold standard) (Candida tropicalis; blind-2): S | Resistance profiles by broth microdilution (the gold standard) (Candida tropicalis; blind-3): R | Resistance profiles by broth microdilution (the gold standard) (Candida tropicalis; blind-4): R | Resistance profiles by broth microdilution (the gold standard) (Candida tropicalis; blind-5): S | Resistance profiles by broth microdilution (the gold standard) (Candida tropicalis; blind-6): S

Piperacillin-tazobactam
Resistance profiles by VITEK2: R (Klebsiella pneumoniae; number of resistant among 24 blinds): 13 | Resistance profiles by VITEK2: S (Klebsiella pneumoniae; number of susceptible among 24 blinds): 11

Nc1nc(=O)[nH]cc1F [5-Fluorocytosine]
Results by broth microdilution method: R (Candida albicans): 4 | Results by broth microdilution method: S (Candida albicans): 8

CN(C)[C@@H]1C(O)=C(C(N)=O)C(=O)[C@@]2(O)C(O)=C3C(=O)c4c(O)cccc4[C@@](C)(O)[C@H]3C[C@@H]12 [tetracycline]
Susceptibility of Emterococcus faecalis to 11 antibacterial drugs (Enterococcus faecalis; [1]): R | Susceptibility of Emterococcus faecalis to 11 antibacterial drugs (Enterococcus faecalis; [2]): S | Susceptibility of Emterococcus faecalis to 11 antibacterial drugs (Enterococcus faecalis; [3]): S | Susceptibility of Emterococcus faecalis to 11 antibacterial drugs (Enterococcus faecalis; [4]): S | Susceptibility of Emterococcus faecalis to 11 antibacterial drugs (Enterococcus faecalis; [15]): S | Susceptibility of Emterococcus faecalis to 11 antibacterial drugs (Enterococcus faecalis; [16]): R | Susceptibility of Emterococcus faecalis to 11 antibacterial drugs (Enterococcus faecalis; [7]): R | Susceptibility of Emterococcus faecalis to 11 antibacterial drugs (Enterococcus faecalis; [8]): R | Susceptibility of Emterococcus faecalis to 11 antibacterial drugs (Enterococcus faecalis; [9]): S | Susceptibility of Emterococcus faecalis to 11 antibacterial drugs (Enterococcus faecalis; [10]): R | Susceptibility of Emterococcus faecalis to 11 antibacterial drugs (Enterococcus faecalis; [11]): R | Susceptibility of Emterococcus faecalis to 11 antibacterial drugs (Enterococcus faecalis; [12]): S | Susceptibility of Emterococcus faecalis to 11 antibacterial drugs (Enterococcus faecalis; [13]): R | Susceptibility of Emterococcus faecalis to 11 antibacterial drugs (Enterococcus faecalis; [14]): S | Blind 1 by AST (Streptococcus pneumoniae): R | Susceptibility of Streptococcus pneumoniae to 14 antibacterial drugs (Streptococcus pneumoniae; [1]): R | Susceptibility of Streptococcus pneumoniae to 14 antibacterial drugs (Streptococcus pneumoniae; [2]): R | Susceptibility of Streptococcus pneumoniae to 14 antibacterial drugs (Streptococcus pneumoniae; [3]): S | Susceptibility of Streptococcus pneumoniae to 14 antibacterial drugs (Streptococcus pneumoniae; [4]): S | Susceptibility of Streptococcus pneumoniae to 14 antibacterial drugs (Streptococcus pneumoniae; [5]): S | Susceptibility of Streptococcus pneumoniae to 14 antibacterial drugs (Streptococcus pneumoniae; [6]): S | Susceptibility of Streptococcus pneumoniae to 14 antibacterial drugs (Streptococcus pneumoniae; [7]): S | Susceptibility of Streptococcus pneumoniae to 14 antibacterial drugs (Streptococcus pneumoniae; [8]): S | Susceptibility of Streptococcus pneumoniae to 14 antibacterial drugs (Streptococcus pneumoniae; [9]): S | Susceptibility of Streptococcus pneumoniae to 14 antibacterial drugs (Streptococcus pneumoniae; [10]): R | Susceptibility of Streptococcus pneumoniae to 14 antibacterial drugs (Streptococcus pneumoniae; [14]): S | blind 2 by AST (Streptococcus pneumoniae): R

CC[C@H](C)C[C@H](C)CCCCCCCCC(=O)N[C@H]1C[C@@H](O)[C@@H](NCCN)NC(=O)[C@@H]2[C@@H](O)CCN2C(=O)[C@H]([C@H](O)CCN)NC(=O)[C@H]([C@H](O)[C@@H](O)c2ccc(O)cc2)NC(=O)[C@@H]2C[C@@H](O)CN2C(=O)[C@H]([C@@H](C)O)NC1=O [CAS]
Resistance profiles by broth microdilution (the gold standard) (Candida tropicalis; blind-1): S | Resistance profiles by broth microdilution (the gold standard) (Candida tropicalis; blind-2): S | Resistance profiles by broth microdilution (the gold standard) (Candida tropicalis; blind-3): S | Resistance profiles by broth microdilution (the gold standard) (Candida tropicalis; blind-4): S | Resistance profiles by broth microdilution (the gold standard) (Candida tropicalis; blind-5): S | Resistance profiles by broth microdilution (the gold standard) (Candida tropicalis; blind-6): S

C[C@@H](c1ncncc1F)[C@](O)(Cn1cncn1)c1ccc(F)cc1F [VOR]
Resistance profiles by broth microdilution (the gold standard) (Candida tropicalis; blind-1): R | Resistance profiles by broth microdilution (the gold standard) (Candida tropicalis; blind-2): S | Resistance profiles by broth microdilution (the gold standard) (Candida tropicalis; blind-3): R | Resistance profiles by broth microdilution (the gold standard) (Candida tropicalis; blind-4): R | Resistance profiles by broth microdilution (the gold standard) (Candida tropicalis; blind-5): S | Resistance profiles by broth microdilution (the gold standard) (Candida tropicalis; blind-6): S

CC[C@H]1OC(=O)[C@H](C)[C@@H](O[C@H]2C[C@@](C)(OC)[C@@H](O)[C@H](C)O2)[C@H](C)[C@@H](O[C@@H]2O[C@H](C)C[C@H](N(C)C)[C@H]2O)[C@](C)(O)C[C@@H](C)C(=O)[C@H](C)[C@@H](O)[C@]1(C)O [erythromycin]
Susceptibility of Emterococcus faecalis to 11 antibacterial drugs (Enterococcus faecalis; [1]): R | Susceptibility of Emterococcus faecalis to 11 antibacterial drugs (Enterococcus faecalis; [2]): R | Susceptibility of Emterococcus faecalis to 11 antibacterial drugs (Enterococcus faecalis; [3]): R | Susceptibility of Emterococcus faecalis to 11 antibacterial drugs (Enterococcus faecalis; [4]): S | Susceptibility of Emterococcus faecalis to 11 antibacterial drugs (Enterococcus faecalis; [15]): R | Susceptibility of Emterococcus faecalis to 11 antibacterial drugs (Enterococcus faecalis; [16]): R | Susceptibility of Emterococcus faecalis to 11 antibacterial drugs (Enterococcus faecalis; [7]): R | Susceptibility of Emterococcus faecalis to 11 antibacterial drugs (Enterococcus faecalis; [8]): R | Susceptibility of Emterococcus faecalis to 11 antibacterial drugs (Enterococcus faecalis; [9]): R | Susceptibility of Emterococcus faecalis to 11 antibacterial drugs (Enterococcus faecalis; [10]): R | Susceptibility of Emterococcus faecalis to 11 antibacterial drugs (Enterococcus faecalis; [11]): S | Susceptibility of Emterococcus faecalis to 11 antibacterial drugs (Enterococcus faecalis; [12]): S | Susceptibility of Emterococcus faecalis to 11 antibacterial drugs (Enterococcus faecalis; [13]): S | Susceptibility of Emterococcus faecalis to 11 antibacterial drugs (Enterococcus faecalis; [14]): S | Blind 1 by AST (Streptococcus pneumoniae): R | blind 2 by AST (Streptococcus pneumoniae): R
